For assay [1], the target named is human activated kallikrein enzyme (Homo sapiens, UniProt P03952). The assay can be described thus: Inhibition of human activated plasma kallikrein, fluorogenic peptide substrate (PFR-AMC), 500 pM enzyme format. The assay is classed as biochemical. Conditions: 500 pM activated kallikrein, 30 min preincubation, 10 min reaction, room temperature, read-out: Primary Dose Response Assay: Average EC50. The essentials:
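Enzyme at 500 pM with […] PFR-AMC in 20 mM Tris pH 7.5, 1 mM EDTA, 150 mM NaCl, 0.1% PEG-400, 0.1% Triton X-100. Inhibitor preincubated 30 min, then 10 min reaction at room temperature; AMC fluorescence read at 380 nm excitation/460 nm emission.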

Another assay concerns the target T1, plasma kallikrein (Homo sapiens, UniProt P03952).
T1 construct: from tissue; host or cells: sodium citrate collected human plasma
The assay can be described thus: Neat human plasma assay (fluorogenic peptide), contact pathway-activated plasma. The conditions noted are these: read-out: Human Plasma Assay: IC90. The assay is classed as biochemical. Here is the method: To analyze inhibition of plasma kallikrein in an ex vivo setting, the potency of compounds was measure in contact pathway-activated plasma assays. In a fluorogenic peptide substrate assay, test compounds dissolved in DMSO were added to sodium citrate collected human or rat plasma in a 96-well microplate. Alternatively, citrated plasma was collected from rats administered the compounds orally or by IV. 10 nM of human FXIIa (Enzyme Research Laboratories) diluted in PKa buffer (20 mM Tris-HCl, pH 7.5, 150 mM NaCl, 1 mM EDTA, 0.100 PEG-8000, and 0.1% Triton X-100) was added to the plasma, followed by the 100 μM of the profluorescent, synthetic plasma kallikrein substrate PFR-AMC (also diluted in PKa buffer). Final plasma concentration in the reaction was […]. Fluorescence was immediately monitored by excitation/emission wavelengths of 360 nm/480 nm respectively over a period of 5 minutes in a microplate reader. The resulting linear increase in fluorescence emission (reflecting PKa proteolysis of PFR-AMC substrate) was fit to extract a proteolytic rate (fluorescent units over time), and this rate was subsequently plotted against compound inhibitor concentration. Resulting plots were fit to a standard 4-parameter IC50/C90 equation to determine min/max values, IC50/90, and slope. All experimental steps were performed at room temperature.

[2] abbreviates: citrated human plasma, 10 nM human FXIIa activation, 100 μM PFR-AMC, room temperature.

The record followed here is patent US20240226106A1, “INHIBITORS OF PLASMA KALLIKREIN” (SHIRE HUMAN GENETIC THERAPIES, INC., priority 2021, published 2024).

Like-named read-outs stand apart in the source and are kept apart here.

In general, EC50 refers to the concentration needed to bring the measured effect to its halfway point. What is called IC90 is the concentration needed for an effect of 90%.

T1 sequence (P03952 391-638 limits assumed): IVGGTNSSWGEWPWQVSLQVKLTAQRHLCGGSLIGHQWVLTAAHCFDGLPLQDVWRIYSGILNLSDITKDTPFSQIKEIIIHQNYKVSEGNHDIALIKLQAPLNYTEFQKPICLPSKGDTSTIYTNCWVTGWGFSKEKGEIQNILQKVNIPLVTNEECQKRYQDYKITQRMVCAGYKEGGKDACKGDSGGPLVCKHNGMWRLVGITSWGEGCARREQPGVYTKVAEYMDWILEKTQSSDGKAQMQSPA
T1 sequence (P03952 20-390 partner limits assumed): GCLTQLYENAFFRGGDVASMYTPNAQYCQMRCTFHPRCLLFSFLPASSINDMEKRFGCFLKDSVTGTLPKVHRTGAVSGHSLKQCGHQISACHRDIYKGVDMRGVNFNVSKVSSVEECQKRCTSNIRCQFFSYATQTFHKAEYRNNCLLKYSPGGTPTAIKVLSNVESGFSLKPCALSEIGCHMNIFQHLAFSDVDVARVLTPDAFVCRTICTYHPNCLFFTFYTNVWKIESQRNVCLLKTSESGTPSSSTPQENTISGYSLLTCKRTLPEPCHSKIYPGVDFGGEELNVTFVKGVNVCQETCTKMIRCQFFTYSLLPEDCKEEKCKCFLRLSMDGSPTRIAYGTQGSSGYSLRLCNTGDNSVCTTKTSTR
human activated kallikrein enzyme, sequence (P03952 391-638 limits assumed): as the sequence (P03952 391-638 limits assumed) above
human activated kallikrein enzyme, sequence (P03952 20-390 partner limits assumed): as the sequence (P03952 20-390 partner limits assumed) above

With `Cc1ccnc([C@H]2C[C@@H]2C(=O)Nc2nc(C)nc(OCc3cn4cc(C5CC5)nc(N5CC(=O)N(C)C5=O)c4n3)n2)n1` [Example 87, (1S,2S)—N-(4-((6-cyclopropyl-8-(3-methyl-2,4-dioxoimidazolidin-1-yl)imidazo[1,2-a]pyrazin-2-yl)methoxy)-6-methyl-1,3,5-triazin-2-yl)-2-(4-methylpyrimidin-2-yl)cyclopropane-1-carboxamide], the EC50 in assay [1] is below 2.5 nM. In addition, the IC90 at plasma kallikrein (setting [2]) lay within 500 to 5000 nM.

For `Cc1ccnc([C@H]2C[C@@H]2C(=O)Nc2cc(N(C)Cc3cn4cc(C5CC5)cnc4n3)nc(C)n2)n1` [Example 90, (1S,2S)—N-(6-(((6-cyclopropylimidazo[1,2-a]pyrimidin-2-yl)methyl)(methyl)amino)-2-methylpyrimidin-4-yl)-2-(4-methylpyrimidin-2-yl)cyclopropane-1-carboxamide], the EC50 in assay [1] was below 2.5 nM. The IC90 at plasma kallikrein (setting [2]) is 5000 to 65000 nM.

Regarding `Cc1ccnc([C@H]2C[C@@H]2C(=O)Nc2cc(NCc3ccc4ncc(C5CC5)cc4c3)ncn2)n1` [Example 93, (1S,2S)—N-(6-(((3-cyclopropylquinolin-6-yl)methyl)amino)pyrimidin-4-yl)-2-(4-methylpyrimidin-2-yl)cyclopropane-1-carboxamide], the EC50 in assay [1] is below 2.5 nM. In addition, the 90% effect concentration (IC90) on plasma kallikrein (setting [2]) was below 500 nM.

With `Cc1ccnc([C@H]2C[C@@H]2C(=O)Nc2cc(OCc3cn4cc(C5CC5)cnc4n3)cnn2)n1` [Example 94, (1S,2S)—N-(5-((6-cyclopropylimidazo[1,2-a]pyrimidin-2-yl)methoxy)pyridazin-3-yl)-2-(4-methylpyrimidin-2-yl)cyclopropane-1-carboxamide], the EC50 in assay [1] was below 2.5 nM. Also, at plasma kallikrein (setting [2]), the IC90 was below 500 nM.

Take `Cc1ccnc([C@H]2C[C@@H]2C(=O)Nc2cc(OCc3cn4nc(C5CC5)cc(N5CC(=O)N(C)C5=O)c4n3)cnn2)n1` [Example 97, (1S,2S)—N-(5-((6-cyclopropyl-8-(3-methyl-2,4-dioxoimidazolidin-1-yl)imidazo[1,2-b]pyridazin-2-yl)methoxy)pyridazin-3-yl)-2-(4-methylpyrimidin-2-yl)cyclopropane-1-carboxamide]: in assay [1], the EC50 was below 2.5 nM. Besides, the IC90 on plasma kallikrein (setting [2]) is below 500 nM.

As to `Cc1ccnc([C@H]2C[C@@H]2C(=O)Nc2cc(NCc3cc(N4CC(=O)N(C)C4=O)c4ncc(C5CC5)cc4c3)ncn2)n1` [Example 98, (1S,2S)—N-(6-(((3-cyclopropyl-8-(3-methyl-2,4-dioxoimidazolidin-1-yl)quinolin-6-yl)methyl)amino)pyrimidin-4-yl)-2-(4-methylpyrimidin-2-yl)cyclopropane-1-carboxamide], the EC50 in assay [1] was below 2.5 nM. At plasma kallikrein (setting [2]), the IC90 was below 500 nM.

`Cc1ccnc([C@H]2C[C@@H]2C(=O)Nc2cc(NCc3cc4cc(C5CC5)cc(N5CC(=O)N(C)C5=O)n4n3)nc(C)n2)n1` [Example 99, (1S,2S)—N-(6-(((5-cyclopropyl-7-(3-methyl-2,4-dioxoimidazolidin-1-yl)pyrazolo[1,5-a]pyridin-2-yl)methyl)amino)-2-methylpyrimidin-4-yl)-2-(4-methylpyrimidin-2-yl)cyclopropane-1-carboxamide]: the concentration giving a half-maximal response (EC50) in assay [1] was below 2.5 nM. In addition, the concentration for an effect of 90% (IC90) at plasma kallikrein is below 500 nM.

In the case of `Cc1ccnc([C@H]2C[C@@H]2C(=O)Nc2cc(OCc3cc4cc(C5CC5)cc(N5CC(=O)N(C)C5=O)n4n3)cnn2)n1` [Example 100, (1S,2S)—N-(5-((5-cyclopropyl-7-(3-methyl-2,4-dioxoimidazolidin-1-yl)pyrazolo[1,5-a]pyridin-2-yl)methoxy)pyridazin-3-yl)-2-(4-methylpyrimidin-2-yl)cyclopropane-1-carboxamide], the concentration for a half-maximal effect (EC50) in assay [1] was below 2.5 nM. Further, on plasma kallikrein, the IC90 is below 500 nM.

For the molecule `Cc1ccnc([C@H]2C[C@@H]2C(=O)Nc2cc(NCc3cc4cc(C5CC5)cc(N5CC(=O)N(C)C5=O)n4n3)ncn2)n1` [Example 101, (1S,2S)—N-(6-(((5-cyclopropyl-7-(3-methyl-2,4-dioxoimidazolidin-1-yl)pyrazolo[1,5-a]pyridin-2-yl)methyl)amino)pyrimidin-4-yl)-2-(4-methylpyrimidin-2-yl)cyclopropane-1-carboxamide], the EC50 in assay [1] is below 2.5 nM. Further, the IC90 on plasma kallikrein (setting [2]) was below 500 nM.

As for `Cc1ccnc([C@H]2C[C@@H]2C(=O)Nc2nncc(N[C@H](C)c3cc4cc(C5CC5)cc(N5CC6CC6C5=O)n4n3)n2)n1` (stereo partly drawn) [Example 105, (1S,2S)—N-(5-(((1R^•)-1-(5-cyclopropyl-7-(2-oxo-3-azabicyclo[3.1.0]hexan-3-yl)pyrazolo[1,5-a]pyridin-2-yl)ethyl)amino)-1,2,4-triazin-3-yl)-2-(4-methylpyrimidin-2-yl)cyclopropane-1-carboxamide], the concentration giving a half-maximal response (EC50) in assay [1] was below 2.5 nM. Further, the IC90 on plasma kallikrein (setting [2]) is below 500 nM.
